# Like-named read-outs stand apart in the source and are kept apart here.
# Legend:
# [1] = target: T1, FabH derived from E. coli (ecFabH) (Escherichia coli, UniProt P0A6R0); test: FabH enzyme assay (coupled trichloroacetic acid precipitation assay), ecFabH; assay type: biochemical; conditions: 1 μM of test compound
# T1 construct: polyhistidine (N); made in house; host or cells: E. coli
# T1 sequence (P0A6R0 1-317): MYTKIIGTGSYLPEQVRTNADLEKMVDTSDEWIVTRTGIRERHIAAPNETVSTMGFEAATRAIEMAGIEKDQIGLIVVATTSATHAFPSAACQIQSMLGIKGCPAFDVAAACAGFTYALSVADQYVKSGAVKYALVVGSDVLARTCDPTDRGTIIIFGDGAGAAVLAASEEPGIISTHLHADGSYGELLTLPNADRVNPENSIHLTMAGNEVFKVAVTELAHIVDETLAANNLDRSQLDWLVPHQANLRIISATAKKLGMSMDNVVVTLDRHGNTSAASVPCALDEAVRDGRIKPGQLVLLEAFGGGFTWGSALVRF
# [2] = target: FabH derived from M. tuberculosis (mtFabH) (Mycobacterium tuberculosis, UniProt P9WNG3); conditions: 10 µM
# [3] = test system: S. aureus (ATCC 25923); test: microbe, parasite or virus in culture; assay type: cell-based, Staphylococcus aureus; conditions: 24 h, 37° C.; for zone of inhibition at 20 µg/disc: Staphylococcus aureus, ATCC25923
# [4] = test system: methicillin-resistant S. aureus (MRSA); test: microbe, parasite or virus in culture; assay type: cell-based, Staphylococcus aureus; conditions: 24 h, 37° C.; for zone of inhibition at 20 µg/disc: Staphylococcus aureus, MRSA, read-out: Average zones of growth inhibition of MRSA (USF-652-659, 919-920)
# [5] = test system: S. aureus (ATCC 25923); test: Agar dilution minimum inhibitory concentration (MIC), S. aureus; assay type: cell-based, Staphylococcus aureus; conditions: serial dilution in 24-well plate, NCCLS; for MIC: Staphylococcus aureus, ATCC25923, read-out: Minimum inhibitory concentration (MIC) against S. aureus (ATCC 25923)
# [6] = test system: B. anthracis (USF 848); test: microbe, parasite or virus in culture; assay type: cell-based, Bacillus anthracis; conditions: 24 h, 37° C.; for zone of inhibition at 20 µg/disc: Bacillus anthracis
# [7] = test system: B. anthracis (USF 848); test: microbe, parasite or virus in culture; assay type: cell-based, Bacillus anthracis; conditions: for MIC: Bacillus anthracis, read-out: Minimum inhibitory concentration (MIC) against B. anthracis (USF 848)
# [8] = test system: E. coli (K12; ATCC 23590); test: Kirby-Bauer zones of inhibition, E. coli; assay type: cell-based, Escherichia coli; conditions: full or partial not stated
# [9] = read-out: Zones of growth inhibition of S. aureus (ATCC 25923), areas of partial inhibition
# [10] = read-out: Zones of growth inhibition of S. aureus (ATCC 25923)
# [11] = read-out: Zones of growth inhibition of B. anthracis (USF 848), areas of partial growth inhibition
# [12] = read-out: Zones of growth inhibition of B. anthracis (USF 848)
# FabH derived from M. tuberculosis (mtFabH), sequence (P9WNG3 whole entry): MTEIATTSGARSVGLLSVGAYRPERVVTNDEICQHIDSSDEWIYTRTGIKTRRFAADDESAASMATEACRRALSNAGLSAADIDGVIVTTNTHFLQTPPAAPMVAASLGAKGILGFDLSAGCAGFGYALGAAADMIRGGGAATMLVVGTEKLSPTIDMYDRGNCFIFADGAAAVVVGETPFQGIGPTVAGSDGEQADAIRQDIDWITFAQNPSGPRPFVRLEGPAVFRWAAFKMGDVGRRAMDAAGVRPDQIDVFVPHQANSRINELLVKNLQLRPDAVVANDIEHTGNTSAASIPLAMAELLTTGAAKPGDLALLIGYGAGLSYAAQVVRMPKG
compound,measurement,setting,value
COC1C(=O)N(SC)C1c1ccccc1Cl (centres unmarked) [Compound 2a],Percent inhibition of ecFabH,[1],89%
same,Percent inhibition of mtFabH,[2],75%
CCSSCCNC(=O)CCNC(=O)[C@H](O)C(C)(C)COP(=O)(O)OP(=O)(O)OC[C@H]1O[C@@H](n2cnc3c(N)ncnc32)[C@H](O)[C@@H]1OP(=O)(O)O [Compound 25b],"Zones of growth inhibition, S. aureus",[3],0 mm
same,"Zones of growth inhibition, MRSA",[4],0 mm
"CSS(C)(=O)=O [Compound 26a, reference compound]","Zones of growth inhibition, S. aureus",[3],22 mm
same,"Zones of growth inhibition, MRSA",[4],23 mm
CCSS(C)(=O)=O [Compound 26b],"Zones of growth inhibition, S. aureus",[3],19 mm
same,"Zones of growth inhibition, MRSA",[4],20 mm
CCC(C)SS(C)(=O)=O (centres unmarked) [Compound 26c],"Zones of growth inhibition, S. aureus",[3],23 mm
same,"Zones of growth inhibition, MRSA",[4],23 mm
"CSSc1ccc(F)c(F)c1 [Compound 33a, 3,4-Difluorophenyl Methyl Disulfide]",zone of inhibition at 20 µg/disc,[3]; [9],11 mm
"CCSSc1ccc(F)c(F)c1 [Compound 33b, 3,4-Difluorophenyl Ethyl Disulfide]",zone of inhibition at 20 µg/disc,[3]; [9],9 mm
"CC(C)SSc1ccc(F)c(F)c1 [Compound 33c, 3,4-Difluorophenyl Isopropyl Disulfide]",zone of inhibition at 20 µg/disc,[3]; [9],9 mm
"CCC(C)SSc1ccc(F)c(F)c1 (centres unmarked) [Compound 33d, Sec-Butyl 3,4-Difluorophenyl Disulfide]",zone of inhibition at 20 µg/disc,[3]; [9],9 mm
"CCCSSc1ccc(F)c(F)c1 [Compound 33e, 3,4-Difluorophenyl n-propyl Disulfide]",zone of inhibition at 20 µg/disc,[3]; [10],0 mm
"CCCCSSc1ccc(F)c(F)c1 [Compound 33f, n-Butyl 3,4-difluorophenyl Disulfide]",zone of inhibition at 20 µg/disc,[3]; [9],10 mm
"CCSSc1ccccc1Cl [Compound 34b, o-Chlorophenyl Ethyl Disulfide]",zone of inhibition at 20 µg/disc,[3]; [9],9 mm
"CC(C)SSc1ccccc1Cl [Compound 34c, o-Chlorophenyl Isopropyl Disulfide]",zone of inhibition at 20 µg/disc,[3]; [9],11 mm
"CCC(C)SSc1ccccc1Cl (centres unmarked) [Compound 34d, s-Butyl o-chlorophenyl Disulfide]",zone of inhibition at 20 µg/disc,[3]; [9],10 mm
"CCCSSc1ccccc1Cl [Compound 34e, o-Chlorophenyl n-propyl Disulfide]",zone of inhibition at 20 µg/disc,[3]; [10],0 mm
"CCCCSSc1ccccc1Cl [Compound 34f, n-Butyl o-chlorophenyl Disulfide]",zone of inhibition at 20 µg/disc,[3]; [9],9 mm
"CSSc1ccc(C)c(C)c1 [Compound 35a, 3,4-Dimethylphenyl Methyl Disulfide]",zone of inhibition at 20 µg/disc,[3]; [9],10 mm
"CCSSc1ccc(C)c(C)c1 [Compound 35b, 3,4-Dimethylphenyl ethyl disulfide]",zone of inhibition at 20 µg/disc,[3]; [10],0 mm
"Cc1ccc(SSC(C)C)cc1C [Compound 35c, 3,4-Dimethylphenyl Isopropyl Disulfide]",zone of inhibition at 20 µg/disc,[3]; [9],9 mm
"CCC(C)SSc1ccc(C)c(C)c1 (centres unmarked) [Compound 35d, sec-Butyl 3,4-dimethylphenyl Disulfide]",zone of inhibition at 20 µg/disc,[3]; [10],0 mm
"CCCSSc1ccc(C)c(C)c1 [Compound 35e, 3,4-Dimethylphenyl n-propyl Disulfide]",zone of inhibition at 20 µg/disc,[3]; [10],0 mm
"CCCCSSc1ccc(C)c(C)c1 [Compound 35f, n-Butyl 3,4-dimethylphenyl Disulfide]",zone of inhibition at 20 µg/disc,[3]; [10],0 mm
"CCOc1cccc(SSC)c1 [Compound 36a, m-Ethoxyphenyl Methyl Disulfide]",zone of inhibition at 20 µg/disc,[3]; [9],9 mm
"CSSc1ccc(N)cc1 [Compound 39a, p-Aminophenyl Methyl Disulfide]",zone of inhibition at 20 µg/disc,[3]; [10],0 mm
"CSSc1ccccc1CO [Compound 41a, o-(Hydroxymethyl)phenyl Methyl Disulfide]",MIC,[5],64 µg/mL
same,zone of inhibition at 20 µg/disc,[3]; [9],14 mm
"CSSc1ccccn1 [Compound 42a, Methyl 2-pyridinyl Disulfide]",MIC,[5],64 µg/mL
same,"activity against S. aureus (ATCC 25923) in Kirby-Bauer assay, in words",[3],some activity
same,zone of inhibition at 20 µg/disc,[3]; [10],16 mm
same,zone of inhibition at 20 µg/disc,[3]; [9],23 mm
"CCSSc1ccccn1 [Compound 42b, Ethyl 2-pyridinyl Disulfide]",MIC,[5],32 µg/mL
same,zone of inhibition at 20 µg/disc,[6]; [11],27 mm
same,"activity against S. aureus (ATCC 25923) in Kirby-Bauer assay, in words",[3],some activity
same,zone of inhibition at 20 µg/disc,[3]; [9],21 mm
"CC(C)SSc1ccccn1 [Compound 42c, Isopropyl 2-pyridinyl Disulfide]",zone of inhibition at 20 µg/disc,[6]; [11],16 mm
same,zone of inhibition at 20 µg/disc,[3]; [10],0 mm
"CCC(C)SSc1ccccn1 (centres unmarked) [Compound 42d, s-Butyl 2-pyridinyl Disulfide]",zone of inhibition at 20 µg/disc,[6]; [11],17 mm
same,zone of inhibition at 20 µg/disc,[3]; [10],0 mm
"CSSc1cccc([N+](=O)[O-])c1 [Compound 43a, Methyl m-nitrophenyl Disulfide]",MIC,[7],2 µg/mL
same,MIC,[5],16 µg/mL
same,zone of inhibition at 20 µg/disc,[6]; [12],43 mm
same,Zones of growth inhibition of S. aureus (ATCC 25923),[3],27 (36) mm
same,"Zones of growth inhibition of S. aureus (ATCC 25923), areas of partial inhibition",[3],27 (36) mm
same,zone of inhibition at 20 µg/disc,[3]; [10],27 mm
same,zone of inhibition at 20 µg/disc,[3]; [9],36 mm
same,zone of inhibition against E. coli,[8],10 mm
same,zone of inhibition at 20 µg/disc,[4],15 mm
"CCSSc1cccc([N+](=O)[O-])c1 [Compound 43b, Ethyl m-nitrophenyl Disulfide]",MIC,[7],0.38 µg/mL
same,MIC,[5],48 µg/mL
same,zone of inhibition at 20 µg/disc,[6]; [12],32 mm
same,zone of inhibition at 20 µg/disc,[6]; [11],40 mm
same,zone of inhibition at 20 µg/disc,[3]; [9],45 mm
same,zone of inhibition at 20 µg/disc,[4],12 mm
"CC(C)SSc1cccc([N+](=O)[O-])c1 [Compound 43c, Isopropyl m-nitrophenyl Disulfide]",MIC,[7],< 0.125 µg/mL
same,MIC,[5],0.4 µg/mL
same,zone of inhibition at 20 µg/disc,[6]; [12],30 mm
same,zone of inhibition at 20 µg/disc,[6]; [11],54 mm
same,Zones of growth inhibition of S. aureus (ATCC 25923),[3],55 (85) mm
same,"Zones of growth inhibition of S. aureus (ATCC 25923), areas of partial inhibition",[3],55 (85) mm
same,zone of inhibition at 20 µg/disc,[3]; [10],55 mm
same,zone of inhibition at 20 µg/disc,[3]; [9],85 mm
same,zone of inhibition at 20 µg/disc,[4],38 mm
"CCC(C)SSc1cccc([N+](=O)[O-])c1 (centres unmarked) [Compound 43d, s-Butyl m-nitrophenyl Disulfide]",MIC,[7],< 0.125 µg/mL
same,MIC,[5],2 µg/mL
same,zone of inhibition at 20 µg/disc,[6]; [12],27 mm
same,zone of inhibition at 20 µg/disc,[6]; [11],41 mm
same,Zones of growth inhibition of S. aureus (ATCC 25923),[3],25 (45) mm
same,"Zones of growth inhibition of S. aureus (ATCC 25923), areas of partial inhibition",[3],25 (45) mm
same,zone of inhibition at 20 µg/disc,[3]; [10],25 mm
same,zone of inhibition at 20 µg/disc,[3]; [9],45 mm
same,zone of inhibition at 20 µg/disc,[4],22 mm
"CSSc1ccccc1[N+](=O)[O-] [Compound 44a, Methyl o-nitrophenyl Methyl Disulfide]",Minimum inhibitory concentration (MIC) against B. anthracis (USF 848),[7],4 µg/mL
same,Minimum inhibitory concentration (MIC) against S. aureus (ATCC 25923),[5],64 µg/mL
same,Zones of growth inhibition of B. anthracis (USF 848),[6],31 mm
same,Zones of growth inhibition of S. aureus (ATCC 25923),[3],34(37) mm
same,"Zones of growth inhibition of S. aureus (ATCC 25923), areas of partial inhibition",[3],34(37) mm
same,zone of inhibition against E. coli,[8],9 mm
same,"Average zones of growth inhibition of MRSA (USF-652-659, 919-920)",[4],26 mm
CCSSc1ccccc1[N+](=O)[O-] [Compound 44b],Minimum inhibitory concentration (MIC) against B. anthracis (USF 848),[7],0.63 µg/mL
same,Minimum inhibitory concentration (MIC) against S. aureus (ATCC 25923),[5],16 µg/mL
same,Zones of growth inhibition of B. anthracis (USF 848),[6],35 mm
same,Zones of growth inhibition of S. aureus (ATCC 25923),[3],29(40) mm
same,"Zones of growth inhibition of S. aureus (ATCC 25923), areas of partial inhibition",[3],29(40) mm
"CC(C)SSc1ccccc1[N+](=O)[O-] [Compound 44c, Isopropyl o-nitrophenyl Disulfide]",MIC,[7],0.63 µg/mL
same,MIC,[5],6 µg/mL
same,zone of inhibition at 20 µg/disc,[6]; [12],16 mm
same,zone of inhibition at 20 µg/disc,[6]; [11],27 mm
same,Zones of growth inhibition of S. aureus (ATCC 25923),[3],17 (31) mm
same,"Zones of growth inhibition of S. aureus (ATCC 25923), areas of partial inhibition",[3],17 (31) mm
same,zone of inhibition at 20 µg/disc,[3]; [10],17 mm
same,zone of inhibition at 20 µg/disc,[3]; [9],31 mm
same,zone of inhibition at 20 µg/disc,[4],20 mm
"CCC(C)SSc1ccccc1[N+](=O)[O-] (centres unmarked) [Compound 44d, s-Butyl o-nitrophenyl Disulfide]",MIC,[7],0.75 µg/mL
same,MIC,[5],16 µg/mL
same,zone of inhibition at 20 µg/disc,[6]; [12],23 mm
same,Zones of growth inhibition of S. aureus (ATCC 25923),[3],15 (24) mm
same,"Zones of growth inhibition of S. aureus (ATCC 25923), areas of partial inhibition",[3],15 (24) mm
same,zone of inhibition at 20 µg/disc,[3]; [10],15 mm
same,zone of inhibition at 20 µg/disc,[3]; [9],24 mm
"CSSc1ccc(NC(C)=O)cc1 [Compound 46a, p-Acetamidophenyl Methyl Disulfide]",MIC,[7],8 µg/mL
same,zone of inhibition at 20 µg/disc,[6]; [11],23 mm
same,zone of inhibition at 20 µg/disc,[3]; [9],20 mm

# — patent US8722937B2 (priority 2006, dated 2014)
